From article PMC9571063 (Molecules, 2022)
Where two headings read alike, the source gives them in different places.

What was measured:
NIM1 = molecular target: T1, NIM1 (Homo sapiens, UniProt Q8IY84); assay: KINOMEscan; format: binding; details: read-out: Percent Control
T1 construct: purchased Eurofins DiscoverX KINOMEscan (scanMAX 468)

[1] = molecular target: T2, RSK3(Kin.Dom.2-C-terminal) (Homo sapiens, UniProt Q15349); assay: KINOMEscan; format: binding; details: read-out: Percent Control
T2 construct: RSK3(Kin.Dom.2-C-terminal); purchased Eurofins DiscoverX KINOMEscan (scanMAX 468)

MET(Y1235D) = molecular target: T3, MET(Y1235D) (Homo sapiens, UniProt P08581, Y1235D); assay: KINOMEscan; format: binding; details: read-out: Percent Control
T3 construct: purchased Eurofins DiscoverX KINOMEscan (scanMAX 468)

FLT3(R834Q) = molecular target: T4, FLT3(R834Q) (Homo sapiens, UniProt P36888, R834Q); assay: KINOMEscan; format: binding; details: read-out: Percent Control
T4 construct: purchased Eurofins DiscoverX KINOMEscan (scanMAX 468)

IKK-beta = molecular target: T5, IKK-beta (Homo sapiens, UniProt O14920); assay: KINOMEscan; format: binding; details: read-out: Percent Control
T5 construct: purchased Eurofins DiscoverX KINOMEscan (scanMAX 468)

[2] = molecular target: T6, ABL1(F317L)-nonphosphorylated (Homo sapiens, UniProt P00519, F317L); assay: KINOMEscan; format: binding; details: read-out: Percent Control
T6 construct: purchased Eurofins DiscoverX KINOMEscan (scanMAX 468)

AURKC = molecular target: T7, AURKC (Homo sapiens, UniProt Q9UQB9); assay: KINOMEscan; format: binding; details: read-out: Percent Control
T7 construct: purchased Eurofins DiscoverX KINOMEscan (scanMAX 468)

TNNI3K = molecular target: T8, TNNI3K (Homo sapiens, UniProt Q59H18); assay: KINOMEscan; format: binding; details: read-out: Percent Control
T8 construct: purchased Eurofins DiscoverX KINOMEscan (scanMAX 468)

RET(M918T) = molecular target: T9, RET(M918T) (Homo sapiens, UniProt P07949, M918T); assay: KINOMEscan; format: binding; details: read-out: Percent Control
T9 construct: purchased Eurofins DiscoverX KINOMEscan (scanMAX 468)

PIK3CG = molecular target: T10, PIK3CG (Homo sapiens, UniProt P48736); assay: KINOMEscan; format: binding; details: read-out: Percent Control
T10 construct: purchased Eurofins DiscoverX KINOMEscan (scanMAX 468)

PIK3CA(M1043I) = molecular target: T11, PIK3CA(M1043I) (Homo sapiens, UniProt P42336, M1043I); assay: KINOMEscan; format: binding; details: read-out: Percent Control
T11 construct: purchased Eurofins DiscoverX KINOMEscan (scanMAX 468)

EGFR(S752-I759del) = molecular target: T12, EGFR(S752-I759del) (Homo sapiens, UniProt P00533, DEL752-759); assay: KINOMEscan; format: binding; details: read-out: Percent Control
T12 construct: purchased Eurofins DiscoverX KINOMEscan (scanMAX 468)

CSNK1G3 = molecular target: T13, CSNK1G3 (Homo sapiens, UniProt Q9Y6M4); assay: KINOMEscan; format: binding; details: read-out: Percent Control
T13 construct: purchased Eurofins DiscoverX KINOMEscan (scanMAX 468)

FLT3(N841I) = molecular target: T14, FLT3(N841I) (Homo sapiens, UniProt P36888, N841I); assay: KINOMEscan; format: binding; details: read-out: Percent Control
T14 construct: purchased Eurofins DiscoverX KINOMEscan (scanMAX 468)

TAOK2 = molecular target: T15, TAOK2 (Homo sapiens, UniProt Q9UL54); assay: KINOMEscan; format: binding; details: read-out: Percent Control
T15 construct: purchased Eurofins DiscoverX KINOMEscan (scanMAX 468)

BMX = molecular target: T16, BMX (Homo sapiens, UniProt P51813); assay: KINOMEscan; format: binding; details: read-out: Percent Control
T16 construct: purchased Eurofins DiscoverX KINOMEscan (scanMAX 468)

CDK4 = molecular target: T17, CDK4 (Homo sapiens, UniProt P11802); assay: KINOMEscan; format: binding; details: read-out: Percent Control
T17 construct: purchased Eurofins DiscoverX KINOMEscan (scanMAX 468)
T17 sequence (P11802 whole entry): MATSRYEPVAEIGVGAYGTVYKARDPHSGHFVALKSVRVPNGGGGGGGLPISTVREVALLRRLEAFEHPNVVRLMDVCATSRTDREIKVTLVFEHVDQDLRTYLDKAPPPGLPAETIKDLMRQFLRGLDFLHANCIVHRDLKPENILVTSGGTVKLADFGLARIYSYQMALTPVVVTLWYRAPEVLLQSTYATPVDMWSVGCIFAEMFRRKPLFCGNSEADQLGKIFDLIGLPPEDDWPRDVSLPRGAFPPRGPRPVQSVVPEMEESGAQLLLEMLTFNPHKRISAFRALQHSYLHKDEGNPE

HIPK3 = molecular target: T18, HIPK3 (Homo sapiens, UniProt Q9H422); assay: KINOMEscan; format: binding; details: read-out: Percent Control
T18 construct: purchased Eurofins DiscoverX KINOMEscan (scanMAX 468)

DAPK1 = molecular target: T19, DAPK1 (Homo sapiens, UniProt P53355); assay: KINOMEscan; format: binding; details: read-out: Percent Control
T19 construct: purchased Eurofins DiscoverX KINOMEscan (scanMAX 468)

p38-beta = molecular target: T20, p38-beta (Homo sapiens, UniProt Q15759); assay: KINOMEscan; format: binding; details: read-out: Percent Control
T20 construct: purchased Eurofins DiscoverX KINOMEscan (scanMAX 468)

PIK3CA = molecular target: T21, PIK3CA (Homo sapiens, UniProt P42336); assay: KINOMEscan; format: binding; details: read-out: Percent Control
T21 construct: purchased Eurofins DiscoverX KINOMEscan (scanMAX 468)

CSF1R-autoinhibited = molecular target: T22, CSF1R-autoinhibited (Homo sapiens, UniProt P07333); assay: KINOMEscan; format: binding; details: read-out: Percent Control
T22 construct: purchased Eurofins DiscoverX KINOMEscan (scanMAX 468)

NEK5 = molecular target: T23, NEK5 (Homo sapiens, UniProt Q6P3R8); assay: KINOMEscan; format: binding; details: read-out: Percent Control
T23 construct: purchased Eurofins DiscoverX KINOMEscan (scanMAX 468)

MYLK = molecular target: T24, MYLK (Homo sapiens, UniProt Q15746); assay: KINOMEscan; format: binding; details: read-out: Percent Control
T24 construct: purchased Eurofins DiscoverX KINOMEscan (scanMAX 468)

[3] = molecular target: T25, ABL1(T315I)-phosphorylated (Homo sapiens, UniProt P00519, T315I); assay: KINOMEscan; format: binding; details: read-out: Percent Control
T25 construct: purchased Eurofins DiscoverX KINOMEscan (scanMAX 468)

Hs_CDK9/CyclinT = molecular target: T26, Hs_CDK9/CyclinT (Homo sapiens, UniProt P50750); design: method as in ref 13 (a number printed in a supplementary file, which may have a reference list of its own: not looked up in the article's list); details: DB18, cited from earlier work
T26 construct: host or cells: Sf9 insect cells (baculovirus)
T26 sequence (P50750 whole entry): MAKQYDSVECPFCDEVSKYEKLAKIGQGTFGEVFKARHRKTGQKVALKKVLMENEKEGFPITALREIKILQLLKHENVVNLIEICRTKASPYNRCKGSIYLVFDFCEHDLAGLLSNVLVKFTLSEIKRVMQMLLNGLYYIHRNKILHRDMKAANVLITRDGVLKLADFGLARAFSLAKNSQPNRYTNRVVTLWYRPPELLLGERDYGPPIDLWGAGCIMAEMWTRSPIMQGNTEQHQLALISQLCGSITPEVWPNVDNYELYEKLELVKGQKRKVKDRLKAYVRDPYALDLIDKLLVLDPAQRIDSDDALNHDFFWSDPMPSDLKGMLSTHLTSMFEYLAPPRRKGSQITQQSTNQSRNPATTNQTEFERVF
T26 sequence (O60563 whole entry partner): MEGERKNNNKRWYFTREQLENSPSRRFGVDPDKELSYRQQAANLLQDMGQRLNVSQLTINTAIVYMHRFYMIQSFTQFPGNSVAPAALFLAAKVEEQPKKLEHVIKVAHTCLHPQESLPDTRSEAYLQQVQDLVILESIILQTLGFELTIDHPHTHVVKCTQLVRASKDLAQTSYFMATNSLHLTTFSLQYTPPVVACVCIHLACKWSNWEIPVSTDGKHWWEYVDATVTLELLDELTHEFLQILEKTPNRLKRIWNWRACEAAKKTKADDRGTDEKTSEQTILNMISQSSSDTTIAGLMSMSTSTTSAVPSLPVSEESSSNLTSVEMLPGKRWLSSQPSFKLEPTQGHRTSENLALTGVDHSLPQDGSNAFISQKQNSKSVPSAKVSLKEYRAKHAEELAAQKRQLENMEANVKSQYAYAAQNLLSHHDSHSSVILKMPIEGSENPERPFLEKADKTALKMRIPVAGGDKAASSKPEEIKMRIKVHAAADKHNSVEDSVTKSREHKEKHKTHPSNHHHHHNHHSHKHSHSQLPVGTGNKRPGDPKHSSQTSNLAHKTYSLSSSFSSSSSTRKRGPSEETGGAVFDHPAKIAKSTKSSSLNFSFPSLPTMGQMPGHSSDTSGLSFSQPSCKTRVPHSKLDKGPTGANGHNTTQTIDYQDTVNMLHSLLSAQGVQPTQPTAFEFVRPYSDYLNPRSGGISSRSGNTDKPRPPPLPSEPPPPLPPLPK

EPHB6 = molecular target: T27, EPHB6 (Homo sapiens, UniProt O15197); assay: KINOMEscan; format: binding; details: read-out: Percent Control
T27 construct: purchased Eurofins DiscoverX KINOMEscan (scanMAX 468)
T27 sequence (O15197 32-1021): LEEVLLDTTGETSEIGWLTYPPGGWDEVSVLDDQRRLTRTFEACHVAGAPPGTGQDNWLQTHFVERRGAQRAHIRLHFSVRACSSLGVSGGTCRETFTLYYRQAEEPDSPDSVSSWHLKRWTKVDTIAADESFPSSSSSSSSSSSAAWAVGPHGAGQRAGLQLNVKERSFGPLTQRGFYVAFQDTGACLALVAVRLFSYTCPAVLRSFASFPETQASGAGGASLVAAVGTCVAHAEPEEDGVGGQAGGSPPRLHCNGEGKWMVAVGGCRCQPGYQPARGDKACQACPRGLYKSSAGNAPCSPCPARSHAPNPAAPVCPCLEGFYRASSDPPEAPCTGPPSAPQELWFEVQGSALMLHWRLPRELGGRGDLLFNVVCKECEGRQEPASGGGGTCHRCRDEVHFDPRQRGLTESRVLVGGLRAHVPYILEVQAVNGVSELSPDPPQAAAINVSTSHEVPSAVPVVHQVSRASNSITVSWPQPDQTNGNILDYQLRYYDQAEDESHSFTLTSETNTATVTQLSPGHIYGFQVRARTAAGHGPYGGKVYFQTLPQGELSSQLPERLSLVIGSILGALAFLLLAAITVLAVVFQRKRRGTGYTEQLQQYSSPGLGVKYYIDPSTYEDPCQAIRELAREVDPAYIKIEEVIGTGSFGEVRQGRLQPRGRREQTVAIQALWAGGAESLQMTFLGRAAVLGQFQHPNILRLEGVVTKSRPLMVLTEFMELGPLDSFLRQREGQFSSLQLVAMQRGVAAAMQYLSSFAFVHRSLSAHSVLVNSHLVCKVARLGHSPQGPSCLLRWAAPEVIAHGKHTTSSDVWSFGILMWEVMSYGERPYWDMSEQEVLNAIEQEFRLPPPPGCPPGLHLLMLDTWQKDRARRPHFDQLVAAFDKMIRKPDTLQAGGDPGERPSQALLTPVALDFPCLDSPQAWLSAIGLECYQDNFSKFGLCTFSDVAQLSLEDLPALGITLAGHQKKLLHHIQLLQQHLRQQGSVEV

CDK8 = molecular target: T28, CDK8 (Homo sapiens, UniProt P49336); assay: KINOMEscan; format: binding; details: read-out: Percent Control
T28 construct: purchased Eurofins DiscoverX KINOMEscan (scanMAX 468)

DCAMKL2 = molecular target: T29, DCAMKL2 (Homo sapiens, UniProt Q8N568); assay: KINOMEscan; format: binding; details: read-out: Percent Control
T29 construct: purchased Eurofins DiscoverX KINOMEscan (scanMAX 468)

SRPK2 = molecular target: T30, SRPK2 (Homo sapiens, UniProt P78362); assay: KINOMEscan; format: binding; details: read-out: Percent Control
T30 construct: purchased Eurofins DiscoverX KINOMEscan (scanMAX 468)

EPHA1 = molecular target: T31, EPHA1 (Homo sapiens, UniProt P21709); assay: KINOMEscan; format: binding; details: read-out: Percent Control
T31 construct: purchased Eurofins DiscoverX KINOMEscan (scanMAX 468)

ALK(C1156Y) = molecular target: T32, ALK(C1156Y) (Homo sapiens, UniProt Q9UM73, C1156Y); assay: KINOMEscan; format: binding; details: read-out: Percent Control
T32 construct: purchased Eurofins DiscoverX KINOMEscan (scanMAX 468)
T32 sequence (Q9UM73 19-1620 C1156Y): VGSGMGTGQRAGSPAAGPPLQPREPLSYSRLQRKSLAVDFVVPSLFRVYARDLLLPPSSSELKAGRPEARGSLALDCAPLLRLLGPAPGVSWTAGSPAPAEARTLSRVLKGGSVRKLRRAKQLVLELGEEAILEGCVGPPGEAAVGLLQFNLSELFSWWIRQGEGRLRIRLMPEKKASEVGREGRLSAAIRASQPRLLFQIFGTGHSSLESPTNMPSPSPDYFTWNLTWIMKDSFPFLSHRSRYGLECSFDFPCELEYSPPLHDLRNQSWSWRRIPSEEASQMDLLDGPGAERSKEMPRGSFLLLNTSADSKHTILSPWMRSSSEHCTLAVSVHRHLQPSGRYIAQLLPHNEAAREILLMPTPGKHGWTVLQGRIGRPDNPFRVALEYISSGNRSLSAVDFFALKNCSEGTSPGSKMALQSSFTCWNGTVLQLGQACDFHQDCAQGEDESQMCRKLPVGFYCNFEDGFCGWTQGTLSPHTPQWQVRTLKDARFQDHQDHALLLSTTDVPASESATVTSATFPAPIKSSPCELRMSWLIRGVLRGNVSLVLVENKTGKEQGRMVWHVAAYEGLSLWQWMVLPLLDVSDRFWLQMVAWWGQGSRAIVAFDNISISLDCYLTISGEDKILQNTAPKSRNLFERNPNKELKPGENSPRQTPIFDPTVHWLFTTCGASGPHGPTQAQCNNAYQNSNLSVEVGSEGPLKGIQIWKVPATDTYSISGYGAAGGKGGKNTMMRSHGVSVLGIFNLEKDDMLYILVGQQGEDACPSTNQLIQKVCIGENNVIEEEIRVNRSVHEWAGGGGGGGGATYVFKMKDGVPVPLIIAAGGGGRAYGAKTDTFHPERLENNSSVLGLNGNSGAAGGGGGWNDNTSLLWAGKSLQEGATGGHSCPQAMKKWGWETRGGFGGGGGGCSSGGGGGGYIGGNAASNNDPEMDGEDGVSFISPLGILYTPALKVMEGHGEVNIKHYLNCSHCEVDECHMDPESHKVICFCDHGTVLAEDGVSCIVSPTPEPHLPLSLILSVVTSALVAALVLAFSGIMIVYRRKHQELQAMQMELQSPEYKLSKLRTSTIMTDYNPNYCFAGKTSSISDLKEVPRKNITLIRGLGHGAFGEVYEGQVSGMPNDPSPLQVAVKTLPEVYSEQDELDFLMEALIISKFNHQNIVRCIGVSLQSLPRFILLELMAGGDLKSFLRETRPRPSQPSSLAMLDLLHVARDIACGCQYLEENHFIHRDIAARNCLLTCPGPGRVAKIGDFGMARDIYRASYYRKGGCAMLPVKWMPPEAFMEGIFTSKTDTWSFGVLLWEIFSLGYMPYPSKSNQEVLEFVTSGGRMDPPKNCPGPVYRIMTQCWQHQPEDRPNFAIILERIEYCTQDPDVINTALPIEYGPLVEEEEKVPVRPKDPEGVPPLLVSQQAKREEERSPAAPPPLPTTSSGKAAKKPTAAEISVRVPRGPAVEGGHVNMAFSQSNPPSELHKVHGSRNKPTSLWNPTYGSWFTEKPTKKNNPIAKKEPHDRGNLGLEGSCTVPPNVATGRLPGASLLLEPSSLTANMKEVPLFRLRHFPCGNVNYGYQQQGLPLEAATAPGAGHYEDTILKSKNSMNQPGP

CHEK1 = molecular target: T33, CHEK1 (Homo sapiens, UniProt O14757); assay: KINOMEscan; format: binding; details: read-out: Percent Control
T33 construct: purchased Eurofins DiscoverX KINOMEscan (scanMAX 468)

SGK3 = molecular target: T34, SGK3 (Homo sapiens, UniProt Q96BR1); assay: KINOMEscan; format: binding; details: read-out: Percent Control
T34 construct: purchased Eurofins DiscoverX KINOMEscan (scanMAX 468)
T34 sequence (Q96BR1 whole entry): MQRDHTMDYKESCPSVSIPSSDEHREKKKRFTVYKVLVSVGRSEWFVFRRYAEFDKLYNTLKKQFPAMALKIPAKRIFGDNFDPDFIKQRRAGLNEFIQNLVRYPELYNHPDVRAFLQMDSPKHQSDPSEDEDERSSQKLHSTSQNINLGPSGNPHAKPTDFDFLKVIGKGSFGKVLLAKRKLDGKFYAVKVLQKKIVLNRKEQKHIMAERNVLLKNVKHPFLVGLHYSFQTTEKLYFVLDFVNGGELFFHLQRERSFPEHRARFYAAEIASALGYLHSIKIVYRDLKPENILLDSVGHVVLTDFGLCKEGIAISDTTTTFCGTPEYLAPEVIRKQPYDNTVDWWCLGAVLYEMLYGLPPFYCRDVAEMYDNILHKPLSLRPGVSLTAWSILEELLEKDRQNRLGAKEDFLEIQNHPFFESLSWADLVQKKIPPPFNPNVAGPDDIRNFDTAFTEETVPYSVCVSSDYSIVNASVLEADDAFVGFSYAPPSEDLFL

PFTK1 = molecular target: T35, PFTK1 (Homo sapiens, UniProt O94921); assay: KINOMEscan; format: binding; details: read-out: Percent Control
T35 construct: purchased Eurofins DiscoverX KINOMEscan (scanMAX 468)

MEK5 = molecular target: T36, MEK5 (Homo sapiens, UniProt Q13163); assay: KINOMEscan; format: binding; details: read-out: Percent Control
T36 construct: purchased Eurofins DiscoverX KINOMEscan (scanMAX 468)

CTK = molecular target: T37, CTK (Homo sapiens, UniProt P42679); assay: KINOMEscan; format: binding; details: read-out: Percent Control
T37 construct: purchased Eurofins DiscoverX KINOMEscan (scanMAX 468)
T37 sequence (P42679 whole entry): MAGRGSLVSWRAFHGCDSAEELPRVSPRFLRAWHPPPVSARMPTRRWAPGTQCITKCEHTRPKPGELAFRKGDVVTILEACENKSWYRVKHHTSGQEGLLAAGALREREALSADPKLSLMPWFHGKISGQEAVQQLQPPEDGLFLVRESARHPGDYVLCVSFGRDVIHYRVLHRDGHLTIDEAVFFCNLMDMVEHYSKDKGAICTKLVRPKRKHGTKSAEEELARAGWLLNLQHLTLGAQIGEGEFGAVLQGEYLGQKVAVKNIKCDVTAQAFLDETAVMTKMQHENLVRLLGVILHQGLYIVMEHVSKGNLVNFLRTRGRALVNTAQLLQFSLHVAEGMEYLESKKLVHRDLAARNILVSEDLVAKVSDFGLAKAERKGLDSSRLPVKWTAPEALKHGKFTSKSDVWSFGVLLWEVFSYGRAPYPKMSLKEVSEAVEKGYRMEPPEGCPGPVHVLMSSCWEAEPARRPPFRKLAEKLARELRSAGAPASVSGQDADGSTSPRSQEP

TESK1 = molecular target: T38, TESK1 (Homo sapiens, UniProt Q15569); assay: KINOMEscan; format: binding; details: read-out: Percent Control
T38 construct: purchased Eurofins DiscoverX KINOMEscan (scanMAX 468)

PIKFYVE = molecular target: T39, PIKFYVE (Homo sapiens, UniProt Q9Y2I7); assay: KINOMEscan; format: binding; details: read-out: Percent Control
T39 construct: purchased Eurofins DiscoverX KINOMEscan (scanMAX 468)

EGFR(E746-A750del) = molecular target: T40, EGFR(E746-A750del) (Homo sapiens, UniProt P00533, DEL746-750); assay: KINOMEscan; format: binding; details: read-out: Percent Control
T40 construct: purchased Eurofins DiscoverX KINOMEscan (scanMAX 468)

TYRO3 = molecular target: T41, TYRO3 (Homo sapiens, UniProt Q06418); assay: KINOMEscan; format: binding; details: read-out: Percent Control
T41 construct: purchased Eurofins DiscoverX KINOMEscan (scanMAX 468)

Cc1ccc(-n2cc(COc3cccc4cnc(Nc5cccc(Cl)c5)nc34)nn2)c([N+](=O)[O-])c1 [DB18]
remaining binding at 1 µM (NIM1): 100%
remaining binding at 1 µM [1]: 100%
remaining binding at 1 µM (MET(Y1235D)): 100%
remaining binding at 1 µM (FLT3(R834Q)): 87%
remaining binding at 1 µM (IKK-beta): 100%
remaining binding at 1 µM [2]: 100%
remaining binding at 1 µM (AURKC): 100%
remaining binding at 1 µM (TNNI3K): 92%
remaining binding at 1 µM (RET(M918T)): 100%
remaining binding at 1 µM (PIK3CG): 62%
remaining binding at 1 µM (PIK3CA(M1043I)): 100%
remaining binding at 1 µM (EGFR(S752-I759del)): 91%
remaining binding at 1 µM (CSNK1G3): 100%
remaining binding at 1 µM (FLT3(N841I)): 77%
remaining binding at 1 µM (TAOK2): 98%
remaining binding at 1 µM (BMX): 100%
remaining binding at 1 µM (CDK4): 100%
remaining binding at 1 µM (HIPK3): 46%
remaining binding at 1 µM (DAPK1): 100%
remaining binding at 1 µM (p38-beta): 100%
remaining binding at 1 µM (PIK3CA): 95%
remaining binding at 1 µM (CSF1R-autoinhibited): 71%
remaining binding at 1 µM (NEK5): 100%
remaining binding at 1 µM (MYLK): 92%
remaining binding at 1 µM [3]: 100%
% of residual activity Hs_CDK9/CyclinT (Hs_CDK9/CyclinT; 1 µM): 90%
% of residual activity Hs_CDK9/CyclinT (Hs_CDK9/CyclinT; 10 µM): 54%
remaining binding at 1 µM (EPHB6): 95%
remaining binding at 1 µM (CDK8): 100%
remaining binding at 1 µM (DCAMKL2): 100%
remaining binding at 1 µM (SRPK2): 87%
remaining binding at 1 µM (EPHA1): 95%
remaining binding at 1 µM (ALK(C1156Y)): 99%
remaining binding at 1 µM (CHEK1): 100%
remaining binding at 1 µM (SGK3): 100%
remaining binding at 1 µM (PFTK1): 100%
remaining binding at 1 µM (MEK5): 95%
remaining binding at 1 µM (CTK): 96%
remaining binding at 1 µM (TESK1): 95%
remaining binding at 1 µM (PIKFYVE): 61%
remaining binding at 1 µM (EGFR(E746-A750del)): 82%
remaining binding at 1 µM (TYRO3): 100%
